Assay results from patent US9895309B2, “Selenosugars for skin tissue repair” (SELENO THERAPEUTICS PTY LTD., priority 2014, dated 2018).

How the values were obtained:
db/db mice [1] = experiment: Wound closure, circular incision wounds, diabetic db/db mice, topical treatment; assay type: in vivo, mouse
Method: FIG. 1 illustrates wound closure observed in the db/db mouse models topically treated with a 1 mM saline solution of 1,4-anhydro-4-seleno-D-talitol (selenosugar) (b) and a non-selenium control sugar, 1,4-anydro-D-talitol (a).
(§1) In the experimental testing according to the present invention, pairs of circular incision wounds on the backs of wildtype C57/BL6 and db^−/db^− mice (n=12 each) were treated daily with a selenosugar according to the current invention or vehicle, topically for 10 days. Wound closure, vascular perfusion and tissue histology were assessed.

db/db mice [2] = experiment: Tissue histology of diabetic wounds; assay type: in vivo, mouse; conditions: diabetic wounds vs vehicle
Excerpt: FIGS. 3 to 12 illustrate comparative tissue histology for (a) the wildtype and (b) db/db mouse models, both (i) non-treated mice, (ii) mice treated for 5 days and (iii) mice treated for 10 days. The figures also illustrate plots against time in days for the following wound parameters for (i), (ii) and (iii) (where * indicates p<0.05, ** indicates p<0.01, *** indicates p<0.001);
as §1

db/db mice [3] = experiment: Vascular perfusion of wounds by Doppler imaging, diabetic mice; assay type: in vivo; conditions: diabetic mouse wounds, p<0.05, FIG. 2
Excerpt: FIG. 2 illustrates vascular perfusion measured by Doppler imaging and corresponding to the selenosugar treated wound (1) and the untreated control wound (2) of the db^−/db^− mouse model of FIG. 1 (where * indicates p, 0.05, and n=6). Doppler imaging is a non-invasive technique used to evaluate blood flow velocity with red blood cells as the moving target;
as §1

wildtype C57/BL6 mice = experiment: Wound closure, circular incision wounds, wildtype mice, topical treatment; assay type: in vivo, mouse
Method: as §1

wildtype mice = experiment: Wound healing comparison of selenosugar with DHSred at the same dose, wildtype mice; assay type: in vivo, mouse; conditions: for Wound healing after topical application / Scar tissue formed during wound healing: same dose; for Wound healing after topical application / Pus formation in wound: FIG. 16; for Scar tissue formed during wound healing: FIG. 17; for Pus formation in wound: topical
Excerpt: FIG. 15 is a plot illustrating the performance of a selenosugar according to the present invention (1,4-anhydro-4-seleno-D-talitol) (8) against a similar water-soluble selenium compound that is not sugar derived (DHSred) (10) in non-diabetic (wt) mice over time. FIG. 15a illustrates % wound closure in terms of the wound size and FIG. 15b illustrates blood flow intensity (Doppler measurement) in arbitrary units where ** indicates p<0.01, *** p<0.001 and **** p<0.0001 and N=6;
FIG. 16 illustrates a wound treated with a selenosugar according to the present invention (ii) and a wound treated with DHSred (i) at the same dose.
FIG. 17 illustrates typical differences in scar tissue that forms during wound healing in wildtype mice having a wound treated with a selenosugar according to the present invention (ii) and a wound treated with DHSred (i) at the same dose.

[4] = tested on: indomethacin-induced stomach ulcers in mice; conditions: Chakraborty et al; cited from earlier work
[5] = wildtype mice, listed as DHSred

Compound: 1,4-anhydro-4-seleno-D-talitol [Formula II]
- Wound closure relative to control db/db mice (db/db mice [1]; day 4): 3 fold
- Wound closure (db/db mice [1]; day 4, p<0.001 vs control db/db mice): 32%
- Wound closure relative to control db/db mice (db/db mice [1]; day 10): 2 fold
- Wound closure (db/db mice [1]; day 10, p<0.0001 vs control db/db mice): 83%
- IL-6 level (tissue histology) (db/db mice [2]; FIG. 4, p<0.05): decreased
- Elastin level (tissue histology) (db/db mice [2]; FIG. 6, p<0.01): increased
- MCP-1 level (tissue histology) (db/db mice [2]; FIG. 9, p<0.001): decreased
- MPO level (tissue histology) (db/db mice [2]; FIG. 10, p<0.001): decreased
- vWF level (tissue histology) (db/db mice [2]; FIG. 12, p<0.01): decreased
- Vascular perfusion (Doppler imaging) (db/db mice [3]): improved vascular perfusion

Compound: OC[C@@H](O)[C@@H]1[Se]C[C@@H](O)[C@H]1O [Formula II, 1,4-anhydro-4-seleno-D-talitol]
- Wound closure relative to controls (wildtype C57/BL6 mice; day 4): 2 fold
- Wound closure (wildtype C57/BL6 mice; day 4, daily topical treatment, p<0.05 vs controls): 32%
- Wound closure (wildtype C57/BL6 mice; day 10, daily topical treatment, p<0.01 vs controls): 82%
- Inflammatory response during tissue repair (wildtype mice; FIG. 16 and histology): anti-inflammatory response
- Tissue repair during wound healing, formula II vs formula III (wildtype mice; wildtype mice, FIG. 15): superior
- Wound healing after topical application (wildtype mice; wildtype mice): improved wound closure and healing
- Scar tissue formed during wound healing (wildtype mice; wildtype mice): significantly less scar tissue

Compound: O[C@@H]1C[Se]C[C@H]1O (racemic) [Formula III, DL-trans-3,4-dihydroxy-1-selenolane]
- Healing of indomethacin-induced stomach ulcers [4]: accelerate healing
- Wound healing after topical application (wildtype mice; wildtype mice): reduced wound healing
- Wound healing after topical application (wildtype mice; [5]): inferior healing
- Scar tissue formed during wound healing (wildtype mice; wildtype mice): pronounced scar tissue build up
- Pus formation in wound (wildtype mice; wildtype mice): observable pus formation
- Pus formation in wound (wildtype mice; [5]): development of pus
